Measurements from PubChem BioAssay (NCI).
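Briefly, cells in 96-well plates were exposed to five compound concentrations for 48 h, and endpoints were estimated by linear interpolation. The concentration for 50% growth inhibition is given as GI50. Definition used: TGI = concentration required for complete inhibition of growth.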

Experiments:
Assay in all cases: NCI tumour cell line growth inhibition, 48 h
786-0 renal = system: 786-0 renal
A498 renal = system: A498 renal
A549 NSCLC = system: A549 NSCLC
ACHN renal = system: ACHN renal
BT-549 breast = system: BT-549 breast
CAKI-1 renal = system: CAKI-1 renal
CCRF-CEM leukemia = system: CCRF-CEM leukemia
COLO 205 colon = system: COLO 205 colon
DU-145 prostate = system: DU-145 prostate
EKVX NSCLC = system: EKVX NSCLC
HCC-2998 colon = system: HCC-2998 colon
HCT-116 colon = system: HCT-116 colon
HCT-15 colon = system: HCT-15 colon
HL-60(TB) leukemia = system: HL-60(TB) leukemia
HOP-62 NSCLC = system: HOP-62 NSCLC
HOP-92 NSCLC = system: HOP-92 NSCLC
HS 578T breast = system: HS 578T breast
HT29 colon = system: HT29 colon
IGROV1 ovarian = system: IGROV1 ovarian
K-562 leukemia = system: K-562 leukemia
KM12 colon = system: KM12 colon
LOX IMVI melanoma = system: LOX IMVI melanoma
M14 melanoma = system: M14 melanoma
MALME-3M melanoma = system: MALME-3M melanoma
MCF7 breast = system: MCF7 breast
MDA-MB-231 breast = system: MDA-MB-231 breast
MDA-MB-435 = system: MDA-MB-435
MOLT-4 leukemia = system: MOLT-4 leukemia
NCI-H226 lung = system: NCI-H226 lung

O=C(Nc1cccc(-n2ccc3c(NC(=O)c4ccccc4)nccc32)c1)Nc1ccc(Cl)c(C(F)(F)F)c1
GI50 (786-0 renal): 0.589 µM | TGI (786-0 renal): > 100 µM | GI50 (A498 renal): 0.21 µM | TGI (A498 renal): 1.35 µM | GI50 (A549 NSCLC): 0.485 µM | TGI (A549 NSCLC): > 100 µM | GI50 (ACHN renal): 0.67 µM | TGI (ACHN renal): 8.48 µM | GI50 (BT-549 breast): 0.697 µM | TGI (BT-549 breast): 10.4 µM | GI50 (CAKI-1 renal): 0.718 µM | TGI (CAKI-1 renal): 9.38 µM | GI50 (CCRF-CEM leukemia): 0.332 µM | TGI (CCRF-CEM leukemia): > 100 µM | GI50 (COLO 205 colon): 0.273 µM | TGI (COLO 205 colon): 0.737 µM | GI50 (DU-145 prostate): 0.338 µM | TGI (DU-145 prostate): 2.28 µM | GI50 (EKVX NSCLC): 0.633 µM | TGI (EKVX NSCLC): > 100 µM | GI50 (HCC-2998 colon): 0.413 µM | TGI (HCC-2998 colon): 15.2 µM | GI50 (HCT-116 colon): 0.372 µM | TGI (HCT-116 colon): 13.7 µM | GI50 (HCT-15 colon): 0.339 µM | TGI (HCT-15 colon): 14.5 µM | GI50 (HL-60(TB) leukemia): 0.332 µM | GI50 (HOP-62 NSCLC): 0.736 µM | TGI (HOP-62 NSCLC): > 44.6 µM | GI50 (HOP-92 NSCLC): 0.86 µM | TGI (HOP-92 NSCLC): 5.74 µM | GI50 (HS 578T breast): 0.283 µM | TGI (HS 578T breast): 3.25 µM | GI50 (HT29 colon): 0.327 µM | TGI (HT29 colon): 1.4 µM | GI50 (IGROV1 ovarian): 0.662 µM | TGI (IGROV1 ovarian): > 100 µM | GI50 (K-562 leukemia): 0.386 µM | TGI (K-562 leukemia): > 100 µM | GI50 (KM12 colon): 0.343 µM | TGI (KM12 colon): 2.68 µM | GI50 (LOX IMVI melanoma): 0.649 µM | TGI (LOX IMVI melanoma): 31.6 µM | GI50 (M14 melanoma): 0.315 µM | TGI (M14 melanoma): 1.26 µM | GI50 (MALME-3M melanoma): 1.07 µM | TGI (MALME-3M melanoma): 47.5 µM | GI50 (MCF7 breast): 0.373 µM | TGI (MCF7 breast): > 30.7 µM | GI50 (MDA-MB-231 breast): 0.42 µM | TGI (MDA-MB-231 breast): 14.2 µM | GI50 (MDA-MB-435): 0.227 µM | TGI (MDA-MB-435): 0.605 µM | GI50 (MOLT-4 leukemia): 0.885 µM | TGI (MOLT-4 leukemia): > 100 µM | GI50 (NCI-H226 lung): 0.865 µM | TGI (NCI-H226 lung): > 28.5 µM
